Experiments:
[1] = biological target: T1, Serine/threonine-protein kinase TNNI3K (Homo sapiens, UniProt Q59H18); assay: Inhibition of TNNI3K (unknown origin)
T1 sequence (Q59H18 whole entry): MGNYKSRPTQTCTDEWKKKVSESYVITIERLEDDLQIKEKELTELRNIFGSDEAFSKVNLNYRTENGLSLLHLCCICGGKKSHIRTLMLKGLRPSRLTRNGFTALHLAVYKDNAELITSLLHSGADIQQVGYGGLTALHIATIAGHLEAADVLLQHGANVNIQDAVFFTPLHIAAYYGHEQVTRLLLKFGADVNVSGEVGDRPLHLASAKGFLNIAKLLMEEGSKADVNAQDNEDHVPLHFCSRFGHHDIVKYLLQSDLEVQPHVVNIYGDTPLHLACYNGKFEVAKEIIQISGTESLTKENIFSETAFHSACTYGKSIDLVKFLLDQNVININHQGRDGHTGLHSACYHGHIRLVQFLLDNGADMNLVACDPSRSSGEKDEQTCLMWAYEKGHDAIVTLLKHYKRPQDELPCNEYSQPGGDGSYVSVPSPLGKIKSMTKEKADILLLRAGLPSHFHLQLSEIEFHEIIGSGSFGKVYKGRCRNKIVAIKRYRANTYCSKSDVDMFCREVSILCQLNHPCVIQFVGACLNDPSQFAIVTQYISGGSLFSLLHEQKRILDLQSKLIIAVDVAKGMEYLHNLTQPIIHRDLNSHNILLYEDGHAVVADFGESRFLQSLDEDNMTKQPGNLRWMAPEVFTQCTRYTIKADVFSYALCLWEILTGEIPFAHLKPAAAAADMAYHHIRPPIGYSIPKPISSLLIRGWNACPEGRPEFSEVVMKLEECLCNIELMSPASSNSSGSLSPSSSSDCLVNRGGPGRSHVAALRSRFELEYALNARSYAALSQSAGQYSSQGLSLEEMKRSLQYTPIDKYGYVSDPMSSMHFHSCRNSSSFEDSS

[2] = biological target: Vascular endothelial growth factor receptor 2 (Homo sapiens, UniProt P35968); assay: Inhibition of GST-6His tagged VEGFR2 (unknown origin) using biotin-aminohexyl-EEEEYFELVAKKKK-NH2 peptide substrate incubated for 90 mins by HTRF assay
[3] = biological target: Mitogen-activated protein kinase 14 (Homo sapiens, UniProt Q16539); assay: Inhibition of p38alpha (unknown origin)
[4] = biological target: Serine/threonine-protein kinase B-raf (Homo sapiens, UniProt P15056); assay: Inhibition of B-Raf (unknown origin)
Homo sapiens [5] = organism: Homo sapiens; assay: Selectivity index, ratio of IC50 for inhibition of VEGFR2 (unknown origin) to IC50 for inhibition of TNNI3K (unknown origin)
Homo sapiens [6] = organism: Homo sapiens; assay: Selectivity index, ratio of IC50 for inhibition of p38alpha (unknown origin) to IC50 for inhibition of TNNI3K (unknown origin)

Sequence of Serine/threonine-protein kinase B-raf (P15056 whole entry): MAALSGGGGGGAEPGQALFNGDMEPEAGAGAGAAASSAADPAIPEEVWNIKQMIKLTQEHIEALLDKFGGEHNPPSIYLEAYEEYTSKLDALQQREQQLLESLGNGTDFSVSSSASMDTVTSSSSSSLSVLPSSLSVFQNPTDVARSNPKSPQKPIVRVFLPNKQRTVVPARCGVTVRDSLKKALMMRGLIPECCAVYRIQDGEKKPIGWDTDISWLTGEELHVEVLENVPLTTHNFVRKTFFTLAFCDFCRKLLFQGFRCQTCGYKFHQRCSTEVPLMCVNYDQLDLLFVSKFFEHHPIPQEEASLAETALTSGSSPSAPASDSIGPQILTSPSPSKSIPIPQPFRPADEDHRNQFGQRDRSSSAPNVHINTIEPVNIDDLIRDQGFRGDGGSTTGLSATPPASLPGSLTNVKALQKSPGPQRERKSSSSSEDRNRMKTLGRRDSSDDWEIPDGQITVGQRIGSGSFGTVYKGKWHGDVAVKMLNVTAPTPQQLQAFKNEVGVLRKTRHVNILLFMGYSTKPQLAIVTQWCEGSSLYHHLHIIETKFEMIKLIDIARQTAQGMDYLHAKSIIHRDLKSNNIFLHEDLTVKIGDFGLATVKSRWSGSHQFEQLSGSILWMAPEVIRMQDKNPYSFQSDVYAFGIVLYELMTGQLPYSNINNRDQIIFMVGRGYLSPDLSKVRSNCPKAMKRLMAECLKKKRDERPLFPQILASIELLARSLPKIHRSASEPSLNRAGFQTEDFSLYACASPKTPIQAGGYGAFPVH
Sequence of Vascular endothelial growth factor receptor 2 (P35968 whole entry): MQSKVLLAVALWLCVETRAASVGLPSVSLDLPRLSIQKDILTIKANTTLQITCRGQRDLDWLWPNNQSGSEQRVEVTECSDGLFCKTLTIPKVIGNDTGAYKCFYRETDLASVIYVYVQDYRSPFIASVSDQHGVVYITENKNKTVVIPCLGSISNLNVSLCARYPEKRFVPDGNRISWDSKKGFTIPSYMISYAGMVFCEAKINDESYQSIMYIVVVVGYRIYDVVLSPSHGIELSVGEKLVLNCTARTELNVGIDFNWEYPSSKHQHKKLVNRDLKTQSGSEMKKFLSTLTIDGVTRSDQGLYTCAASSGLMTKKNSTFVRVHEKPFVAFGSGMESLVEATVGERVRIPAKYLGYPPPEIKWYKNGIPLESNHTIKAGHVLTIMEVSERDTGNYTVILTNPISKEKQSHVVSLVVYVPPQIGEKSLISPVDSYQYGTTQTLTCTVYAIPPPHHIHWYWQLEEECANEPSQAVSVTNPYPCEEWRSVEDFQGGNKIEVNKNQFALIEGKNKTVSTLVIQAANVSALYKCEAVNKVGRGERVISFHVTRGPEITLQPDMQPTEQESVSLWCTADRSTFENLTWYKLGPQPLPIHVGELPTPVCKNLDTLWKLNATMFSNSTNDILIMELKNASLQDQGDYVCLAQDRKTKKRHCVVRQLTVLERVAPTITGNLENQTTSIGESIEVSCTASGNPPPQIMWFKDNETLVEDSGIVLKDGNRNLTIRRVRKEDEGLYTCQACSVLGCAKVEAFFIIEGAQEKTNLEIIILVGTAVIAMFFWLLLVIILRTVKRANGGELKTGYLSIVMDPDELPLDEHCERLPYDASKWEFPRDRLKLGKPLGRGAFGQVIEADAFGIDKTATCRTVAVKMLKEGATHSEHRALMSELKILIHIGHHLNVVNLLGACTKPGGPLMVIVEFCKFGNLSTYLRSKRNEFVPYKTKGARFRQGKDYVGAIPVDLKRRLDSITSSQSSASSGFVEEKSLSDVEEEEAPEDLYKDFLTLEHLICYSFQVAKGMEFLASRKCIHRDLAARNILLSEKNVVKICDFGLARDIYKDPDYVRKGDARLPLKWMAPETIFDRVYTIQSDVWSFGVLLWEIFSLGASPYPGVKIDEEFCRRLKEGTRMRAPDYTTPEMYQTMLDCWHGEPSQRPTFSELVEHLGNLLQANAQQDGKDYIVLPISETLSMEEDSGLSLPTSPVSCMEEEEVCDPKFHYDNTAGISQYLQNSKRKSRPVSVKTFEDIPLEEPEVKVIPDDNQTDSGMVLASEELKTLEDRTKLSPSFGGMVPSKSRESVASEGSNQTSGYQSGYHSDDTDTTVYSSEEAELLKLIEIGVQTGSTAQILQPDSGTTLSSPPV
Sequence of Mitogen-activated protein kinase 14 (Q16539 whole entry): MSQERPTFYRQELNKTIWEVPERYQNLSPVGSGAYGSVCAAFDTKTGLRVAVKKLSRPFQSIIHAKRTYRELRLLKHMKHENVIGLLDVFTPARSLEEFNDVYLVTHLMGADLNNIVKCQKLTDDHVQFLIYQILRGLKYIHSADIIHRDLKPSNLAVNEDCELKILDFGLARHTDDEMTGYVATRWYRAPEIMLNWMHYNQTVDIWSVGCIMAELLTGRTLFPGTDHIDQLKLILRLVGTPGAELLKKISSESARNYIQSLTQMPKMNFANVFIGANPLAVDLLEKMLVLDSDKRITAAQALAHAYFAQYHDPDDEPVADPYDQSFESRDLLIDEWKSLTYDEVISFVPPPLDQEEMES

SMILES | IC50 [1] | IC50 [2] | IC50 [3] | IC50 [4] | Ratio IC50 (Homo sapiens [5]) | Ratio IC50 (Homo sapiens [6])
C[C@@H](O)CNc1cc(Oc2ccc(NC(=O)Nc3cccc(C(F)(F)F)c3)cc2)ncn1 | 63 nM | 200 nM | 500 nM | 1000 nM | 3.2 | 8
Cc1cc(Oc2ccc(NC(=O)Nc3cccc(C(F)(F)F)c3)cc2)c2ccccc2n1 | > 50000 nM | > 10000 nM | 1000 nM | 1260 nM |  | < 0.02
CNc1cc(Oc2ccc(NC(=O)Nc3cccc(C(C)(F)F)c3)cc2)ncn1 | 40 nM | 40 nM | 1000 nM | 500 nM | 1 | 25
CC(C)CNc1cc(Oc2ccc(NC(=O)Nc3cccc(C(F)(F)F)c3)cc2)ncn1 | 50 nM | 320 nM | 250 nM | 1260 nM | 6.4 | 5
CCCNc1cc(Oc2ccc(NC(=O)Nc3cccc(C(F)(F)F)c3)cc2)ncn1 | 32 nM | 19 nM | 400 nM | 630 nM |  | 13
CNc1cc(Oc2ccc(NC(=O)Nc3cccc(C(F)(F)F)c3)cc2Cl)ncn1 | 50 nM | 50 nM | 800 nM | 500 nM | 1 | 16
O=C(Nc1ccc(Oc2ccncn2)cc1)Nc1cccc(C(F)(F)F)c1 | 160 nM | 50 nM | 630 nM | 1000 nM | 0.3 | 3.9
CNc1cc(Oc2ccc(NC(=O)Nc3cccc(C(F)(F)F)c3)cc2C)ncn1 | ≤ 10 nM | 63 nM | 630 nM | 160 nM | > 6.3 | > 63
CNc1cc(Oc2c(C)cc(NC(=O)Nc3cccc(C(F)(F)F)c3)c3ccccc23)ncn1 | 32 nM | 160 nM | 130 nM | > 2000 nM | 5 | 4
COc1cc(Oc2ccc(NC(=O)Nc3cccc(C(F)(F)F)c3)cc2)ncn1 | 4000 nM | 400 nM | 1260 nM | > 2000 nM | 0.1 | 0.3
CNc1cc(Oc2ccc(NC(=O)Nc3cccc(C(C)(C)C)c3)cc2)ncn1 | 40 nM | 25 nM | 1000 nM | 400 nM | 0.63 | 25
CNc1cc(Oc2ccc(NC(=O)Nc3cccc(CF)c3)cc2)ncn1 | 400 nM | 400 nM | 25000 nM | > 2000 nM | 1 | 63
CNc1cc(Oc2ccc(NC(=O)Nc3ccccc3)cc2)ncn1 | 6300 nM | 6300 nM | > 25000 nM | > 2000 nM | 1 | > 4
O=C(Nc1ccc(Oc2ccncc2)cc1)Nc1cccc(C(F)(F)F)c1 | 50 nM | 20 nM | 200 nM | 630 nM | 0.4 | 4
Cc1cc(Oc2ccc(NC(=O)Nc3cccc(C(F)(F)F)c3)cc2)ncn1 | 160 nM | 63 nM | 1000 nM | 1260 nM | 0.4 | 6.3
CCNc1cc(Oc2ccc(NC(=O)Nc3cccc(C(F)(F)F)c3)cc2)ncn1 | 25 nM | 16 nM | 320 nM | 500 nM | 0.64 | 13
C[C@H](O)CNc1cc(Oc2ccc(NC(=O)Nc3cccc(C(F)(F)F)c3)cc2)ncn1 | 32 nM | 320 nM | 320 nM | 800 nM | 10 | 10
O=C(Nc1ccc(Oc2cc(O)ncn2)cc1)Nc1cccc(C(F)(F)F)c1 | 3200 nM | 3200 nM | 1600 nM | > 2000 nM | 1 | 0.5
CCc1cccc(NC(=O)Nc2ccc(Oc3cc(NC)ncn3)cc2)c1 | 200 nM | 130 nM | 16000 nM | > 2000 nM | 0.65 | 80
CNc1cc(Oc2ccc(NC(=O)Nc3cccc(C(C)F)c3)cc2)ncn1 (stereo not drawn) | 79 nM | 79 nM | 5000 nM | 1000 nM | 1 | 63
CNc1cc(Oc2cc(C)c(NC(=O)Nc3cccc(C(F)(F)F)c3)cc2C)ncn1 | 32 nM | 2000 nM | 5000 nM | > 2000 nM | 63 | 160

More lines, in order of falling IC50 [2], values ahead:

IC50 [1] | IC50 [2] | IC50 [3] | IC50 [4] | Ratio IC50 (Homo sapiens [5]) | Ratio IC50 (Homo sapiens [6]) | SMILES
 | 16 nM | 1000 nM | 1600 nM | 0.64 | 40 | CNc1cc(Oc2ccc(NC(=O)Nc3cccc(C(F)(F)F)c3)cc2F)ncn1
100 nM | 10 nM | 1600 nM | 400 nM | 0.1 | 16 | COc1ccc2ncnc(Oc3ccc(NC(=O)Nc4cccc(C(F)(F)F)c4)cc3)c2c1
63 nM | 6.3 nM | 400 nM | 63 nM | 0.1 | 6.3 | CNc1cc(Oc2ccc(NC(=O)Nc3cccc(C(F)(F)F)c3)c(F)c2)ncn1
63 nM | 5 nM | 100 nM | 200 nM | 0.08 | 1.6 | O=C(Nc1ccc(Oc2ccnc3ccccc23)cc1)Nc1cccc(C(F)(F)F)c1
79 nM | 4 nM | 320 nM |  | 0.05 | 4 | CNC(=O)c1cc(Oc2ccc(NC(=O)Nc3cccc(C(F)(F)F)c3)cc2)ccn1
10 nM | 3.2 nM | 50 nM | 200 nM | 0.32 | 5 | O=C(Nc1ccc(Oc2cc(Nc3cccc(CN4CCCC4)c3)ncn2)cc1)Nc1cccc(C(F)(F)F)c1
32 nM | 3.2 nM | 32 nM | 320 nM | 0.1 | 1 | O=C(Nc1ccc(Oc2ccnc3[nH]ccc23)cc1)Nc1cccc(C(F)(F)F)c1
20 nM | 2.5 nM | 160 nM | 16 nM | 0.13 | 8 | CNc1cc(Oc2ccc(NC(=O)Nc3cccc(C(F)(F)F)c3)c(F)c2F)ncn1
23 nM | 2 nM | 800 nM | 63 nM | 0.08 | 32 | COc1cc2ncnc(Oc3ccc(NC(=O)Nc4cccc(C(F)(F)F)c4)cc3)c2cc1OC
20 nM | 1.3 nM | 79 nM | 32 nM | 0.07 | 4 | CC(=O)Nc1cc(Oc2ccc(NC(=O)Nc3cccc(C(F)(F)F)c3)cc2)ncn1
10 nM | 0.4 nM | 400 nM | 630 nM | 0.04 | 40 | O=C(O)Cc1cccc(Nc2cc(Oc3ccc(NC(=O)Nc4cccc(C(F)(F)F)c4)cc3)ncn2)c1

From ChEMBL document CHEMBL4840354, “Identification of Diarylurea Inhibitors of the Cardiac-Specific Kinase TNNI3K by Designing Selectivity Against VEGFR2, p38α, and B-Raf” (J Med Chem, 2021)
